Test results: US8633245B2, “PAI-1 inhibitor” (Institute of Medicinal Molecular Design, Inc., priority 2008, dated 2014)

Target: T1, recombinant human PAI-1 (Homo sapiens, UniProt P05121)
T1 construct: purchased Molecular Innovations, Inc
Test: Test Example 1: human PAI-1 inhibitory activity (tPA fluorogenic substrate, pH 7.5 Tris buffer)
Format: biochemical
Details: Tris buffer
Method: 50 mM Tris, 150 mM NaCl, 10 μg/ml BSA, 0.01% Tween80 (SIGMA-ALDRICH Corporation)

T1 sequence (P05121 24-402): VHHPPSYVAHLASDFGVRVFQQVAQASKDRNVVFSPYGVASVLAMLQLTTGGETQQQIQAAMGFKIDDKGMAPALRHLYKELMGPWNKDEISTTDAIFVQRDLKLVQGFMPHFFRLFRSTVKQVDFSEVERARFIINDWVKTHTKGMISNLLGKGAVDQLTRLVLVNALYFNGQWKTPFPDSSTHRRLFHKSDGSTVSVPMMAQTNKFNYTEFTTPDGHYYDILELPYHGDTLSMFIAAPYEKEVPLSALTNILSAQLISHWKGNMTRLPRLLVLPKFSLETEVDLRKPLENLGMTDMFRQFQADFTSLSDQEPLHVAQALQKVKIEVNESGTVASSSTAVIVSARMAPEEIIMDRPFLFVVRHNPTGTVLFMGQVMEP

Row | SMILES | Inhibition Rate of PAI-1 Activity (%) (Compound Concentration 5 μM) | Inhibition Rate of PAI-1 Activity (%) (Compound Concentration 10 μM) | Inhibition Rate of PAI-1 Activity (%) (Compound Concentration 25 μM) | Inhibition Rate of PAI-1 Activity (%) (Compound Concentration 0.5 μM) | Inhibition Rate of PAI-1 Activity (%) (Compound Concentration 1 μM)
1 | O=C(O)CCc1cc(-c2ccc(OC(F)(F)F)cc2)ccc1OCCCCCc1ccccc1 [Compound 104] | 47% | 77% | 96% | – | –
2 | CC(C)(C)c1ccc(Oc2cc(Oc3ccc(OC(F)(F)F)cc3)ccc2/C=C/C(=O)O)cc1 [Compound 89] | 46% | 87% | 95% | – | –
3 | CCCOc1ccc(N(CCCCc2ccccc2)C(=O)C(=O)O)cc1-c1ccc(OC(F)(F)F)cc1 [Compound 240] | 62% | 91% | 95% | – | –
4 | CC(C)(C)c1ccc(CN(C(=O)C(=O)O)c2ccc(-c3cccc(OC(F)(F)F)c3)cc2)cc1 [Compound 200] | 64% | 89% | 92% | – | –
5 | CCCCCCOc1ccc(-c2ccc(OC(F)(F)F)cc2)cc1N(CCCCc1ccccc1)C(=O)C(=O)O [Compound 245] | 93% | 97% | – | – | –
6 | Cc1c(-c2ccc(OC(F)(F)F)cc2)cccc1N(Cc1ccc(C(C)(C)C)cc1)C(=O)C(=O)O [Compound 177] | 43% | 83% | 91% | – | –
7 | CC(C)Oc1ccc(N(CCCc2ccccc2)C(=O)C(=O)O)c(-c2ccc(OC(F)(F)F)cc2)c1 [Compound 239] | 43% | 80% | 98% | – | –
8 | CC(C)(C)c1ccc(CN(C(=O)C(=O)O)c2ccc(-c3ccc(OC(F)(F)F)cc3)c(CCC(=O)O)c2)cc1 [Compound 196] | 18% | 35% | 64% | – | –
9 | CC(C)(C)c1ccc(-c2ccc(OCc3ccc(OC(F)(F)F)cc3)c(/C=C/C(=O)O)c2)cc1 [Compound 51] | 32% | 69% | 94% | – | –
10 | O=C(O)C(=O)N(CCCCc1ccccc1)c1ccc(-c2ccc(OC(F)(F)F)cc2)cc1 [Compound 225] | 27% | 50% | 88% | – | –
11 | CC(C)(C)c1ccc(-c2ccc(N(Cc3ccc(OC(F)(F)F)cc3)C(=O)C(=O)O)cc2)cc1 [Compound 162] | 30% | 74% | >99% | – | –
12 | CC(C)(C)c1ccc(-c2ccc(N(Cc3cccc(OC(F)(F)F)c3)C(=O)C(=O)O)cc2)cc1 [Compound 203] | 69% | 91% | 97% | – | –
13 | CC(C)(C)c1ccc(COc2ccc(-c3ccc(C(C)(C)C)cc3)cc2/C=C/C(=O)O)cc1 [Compound 39] | 25% | 56% | 94% | – | –
14 | O=C(O)C(=O)N(Cc1ccc(Cl)cc1)c1ccc(-c2ccc(OC(F)(F)F)cc2)cc1 [Compound 124] | 22% | 49% | – | – | –
15 | CC(C)(C)c1ccc(COc2ccc(-c3cccc(C(=O)O)c3)cc2CCC(=O)O)cc1 [Compound 26] | – | 9% | 25% | – | –
16 | CC(C)(C)c1ccc(COc2ccc(-c3ccc(OC(F)(F)F)cc3)cc2NC(=O)C(=O)[O-])cc1.[Na+] [Compound 6] | 83% | 94% | – | – | –
17 | O=C(O)C(=O)N(Cc1ccc(OC(F)(F)F)cc1)c1ccc(-c2ccc(OC(F)(F)F)cc2)cc1 [Compound 159] | 21% | 45% | 92% | – | –
18 | O=C(O)/C=C/c1cc(-c2ccc(OC(F)(F)F)cc2)ccc1OCc1ccccc1 [Compound 24] | – | 11% | 64% | – | –
19 | CC(C)(C)Oc1ccc(N(CCCCc2ccccc2)C(=O)C(=O)O)cc1-c1ccc(OC(F)(F)F)cc1 [Compound 249] | 68% | 89% | – | – | –
20 | CCCOc1ccc(N(CCCc2ccccc2)C(=O)C(=O)O)c(-c2ccc(OC(F)(F)F)cc2)c1 [Compound 232] | 52% | 82% | 96% | – | –
21 | Cc1ccc(-c2ccc(N(Cc3ccc(C(C)(C)C)cc3)C(=O)C(=O)O)cc2)cc1 [Compound 141] | – | 5% | 52% | – | –
22 | COc1ccc(-c2ccc(N(Cc3ccc(C(C)(C)C)cc3)C(=O)C(=O)O)cc2)cc1 [Compound 126] | 16% | 43% | – | – | –

Row | SMILES | Inhibition Rate of PAI-1 Activity (%) (Compound Concentration 5 μM) | Inhibition Rate of PAI-1 Activity (%) (Compound Concentration 10 μM) | Inhibition Rate of PAI-1 Activity (%) (Compound Concentration 25 μM) | Inhibition Rate of PAI-1 Activity (%) (Compound Concentration 0.5 μM) | Inhibition Rate of PAI-1 Activity (%) (Compound Concentration 1 μM)
23 | CC(C)(C)c1ccc(CN(C(=O)C(=O)O)c2ccc(Sc3ccc(OC(F)(F)F)cc3)cc2)cc1 [Compound 621] | 67% | 95% | 91% | – | –
24 | CCCCCOc1ccc(-c2ccc(OC(F)(F)F)cc2)cc1N(Cc1ccccc1)C(=O)C(=O)O [Compound 195] | 77% | 94% | 93% | – | –
25 | CCCCc1ccc(-c2ccc(OCc3ccc(C(C)(C)C)cc3)c(CCC(=O)O)c2)cc1 [Compound 43] | 29% | 66% | 94% | – | –
26 | O=C(O)C(=O)N(Cc1ccccc1)c1ccc(Oc2ccc(OC(F)(F)F)cc2)cc1 [Compound 154] | – | 3% | 20% | – | –
27 | CCCCOc1ccc(-c2ccc(OC(F)(F)F)cc2)cc1N(CCCc1ccccc1)C(=O)C(=O)O [Compound 235] | 66% | 89% | 93% | – | –
28 | Cc1ccc(COc2ccc(-c3ccc(OC(F)(F)F)cc3)cc2CCC(=O)O)cc1 [Compound 61] | 21% | 48% | 97% | – | –
29 | CC(C)(C)c1ccc(CN(C(=O)C(=O)O)c2ccc(-c3ccc(OC(F)(F)F)cc3)cc2OC(F)(F)F)cc1 [Compound 151] | 35% | 80% | 90% | – | –
30 | O=C(O)C(=O)N(Cc1ccc(-c2ccccc2)cc1)c1ccc(-c2ccc(OC(F)(F)F)cc2)cc1 [Compound 161] | 27% | 62% | >99% | – | –
31 | CC(C)(C)c1ccc(-c2ccc(N(Cc3ccc(C(F)(F)F)cc3)C(=O)C(=O)O)cc2)cc1 [Compound 205] | 50% | 80% | 98% | – | –
32 | CC(C)(C)c1ccc(COc2ccc(-c3ccccc3OC(F)(F)F)cc2CCC(=O)O)cc1 [Compound 66] | 52% | 80% | >99% | – | –
33 | CC(C)(C)c1ccc(COc2cc(Oc3ccc(OC(F)(F)F)cc3)ccc2/C=C/C(=O)O)cc1 [Compound 77] | 27% | 51% | 73% | – | –
34 | CC(C)(C)c1ccc(Oc2ccc(-c3ccc(OC(F)(F)F)cc3)cc2CCC(=O)O)c(CCC(=O)O)c1 [Compound 542] | 67% | – | – | 0% | 14%
35 | O=C(O)CCc1cc(-c2ccc(OC(F)(F)F)cc2)ccc1OCCCOc1ccccc1 [Compound 103] | 33% | 57% | 89% | – | –
36 | O=C(O)CCc1cc(-c2ccccc2)ccc1OCc1ccc(OC(F)(F)F)cc1 [Compound 53] | 19% | 32% | 74% | – | –
37 | CC(C)(C)c1ccc(Oc2cc(-c3ccc(OC(F)(F)F)cc3)ccc2OC(F)C(=O)O)cc1 (centres unmarked) [Compound 119] | 75% | 93% | 99% | – | –
38 | CC(C)(C)c1ccc(COc2ccc(-c3ccc(OC(F)(F)F)cc3)cc2OCCCC(=O)O)cc1 [Compound 109] | 24% | 50% | 96% | – | –
39 | CC(C)(C)c1ccc(CN(C(=O)C(=O)O)c2ccc(-c3ccc(OC(F)(F)F)cc3)c(C(F)(F)F)c2)cc1 [Compound 166] | 44% | 79% | 84% | – | –
40 | CC(C)c1ccc(Oc2ccc(/C=C\C(=O)O)c(Oc3ccc(C(C)C)cc3)c2)cc1 [Compound 74] | 13% | 53% | 96% | – | –
41 | O=C(O)CCc1cc(-c2ccc(OC(F)(F)F)cc2)ccc1OCc1ccc(-c2ccccc2)cc1 [Compound 29] | 21% | 56% | 88% | – | –
42 | CC(c1ccc(C(C)(C)C)cc1)N(C(=O)C(=O)O)c1ccc(-c2ccc(OC(F)(F)F)cc2)cc1 (centres unmarked) [Compound 220] | 51% | 86% | 89% | – | –
43 | CC(C)(C)Oc1ccc(N(Cc2ccc(C(C)(C)C)cc2)C(=O)C(=O)O)cc1-c1ccc(OC(F)(F)F)cc1 [Compound 218] | 83% | 78% | – | – | –
44 | CC(C)(C)c1ccc(COc2ccc(-c3ccc4c(c3)OCO4)cc2CC(=O)O)cc1 [Compound 10] | 32% | 65% | >99% | – | –
